These results are taken from patent EP0430029A2, “Pyridin-2,4- and 2,5-dicarboxylic acid diamides, process for their preparation and their use” (HOECHST AKTIENGESELLSCHAFT, priority 1989, dated 1991).

The subject of the assay is durch CCl₄ induzierte Leberfibrose in Ratten. Briefly: CCl₄-induced liver fibrosis in rats, 8-week treatment (liver hydroxyproline, serum procollagen III peptide, serum bilirubin). To be noted: 8 weeks. The assay is classed as in vivo. The source says: Zum Nachweis der effektiven Hemmung der Prolin- und Lysinhydroxylase durch die erfindungsgemäßen Verbindungen wurden die Hydroxyprolin-Konzentrationen in der Leber und die Prokollagen-III-Peptid-Konzentrationen im Serum von • a) unbehandelten Ratten (Kontrolle) • b) Ratten, denen Tetrachlorkohlenstoff verabreicht wurde (CCl₄-Kontrolle) • c) Ratten, denen zunächst CCl₄ und anschließend eine erfindungsgemäße Verbindung verabreicht wurde gemessen (diese Testmethode wird beschrieben von Rouiller, C., experimental toxic injury of the liver; in The Liver, C. Rouiller, Vol. 2, S. 335-476, New York, Academic Press, 1964).
Die Wirkstärke der erfindungsgemäßen Verbindungen wurde als prozentuale Hemmung der Leber-Hydroxyprolin- und Prokollagen-III-Peptidsynthese nach oraler Gabe im Vergleich zu Kontrolltieren, denen nur Tetrachlorkohlenstoff verabreicht wurde (CCl₄-Kontrolle), bestimmt. Die Ergebnisse sind in Tabelle 1 aufgeführt. Tabelle 1

On to `CC(=O)NNC(=O)c1ccnc(C(=O)NNC(C)=O)c1` [Example 1, Pyridin-2,4-dicarbonsäuredi-(methylcarbonylhydrazid)], for which the Bilirubin (Bilirubin in Serum (total), rats given CCl₄ then compound, daily oral dose 50 mg/kg) is 3,0 µM. Moreover, where the note is “Hydroxyprolin Gehalt in der Leber, rats given CCl₄ then compound, daily oral dose 50 mg/kg”, the Hyp is listed as 0,181 µg/ml. Under “Prokollagen III N-peptid im Serum, rats given CCl₄ then compound, daily oral dose 50 mg/kg”, this compound gave a PIIIP of 29 ng/mL. Also, where the note is “liver hydroxyproline, absolute increase versus untreated control, 50 mg/kg oral daily”, the “Hyp Zunahme (absolut) gegen Kontrolle” value is reported as 0,125 µg/ml. Moreover, the “Hyp prozentuale Abnahme gegen CCl₄-Behandlung” value (liver hydroxyproline, 50 mg/kg oral daily) was 27%. Also, the “Mittelwert: Gesamtgehalt an Bilirubin, PIIIP und Hyp, % Abweichung” value (mean of the percent decreases of bilirubin, PIIIP and Hyp versus CCl₄ treatment, 50 mg/kg oral daily) is listed as “(33 ± 13 %)”. In addition, under “serum procollagen III N-peptide, absolute increase versus untreated control, 50 mg/kg oral daily”, the “PIIIP Zunahme (absolut) gegen Kontrolle” value was determined as 18 ng/mL. The “PIIIP prozentuale Abnahme gegen CCl₄-Behandlung” value (serum procollagen III N-peptide, 50 mg/kg oral daily) was found to be 14%. In addition, the “Bilirubin Zunahme (absolut) gegen Kontrolle” value (serum total bilirubin, absolute increase versus untreated control, 50 mg/kg oral daily) is 1,1 µM. Further, the “Bilirubin prozentuale Abnahme gegen CCl₄-Behandlung” value (serum total bilirubin, 50 mg/kg oral daily) came out at 58%.
